Data as given in article PMC12090182, “Repurposing of the RIPK1-Selective Benzo[1,4]oxazepin-4-one Scaffold for the Development of a Type III LIMK1/2 Inhibitor” (ACS Chemical Biology, 2025).
Where two headings read alike, the source gives them in different places.

Key:
Assay in all cases: biochemical
Assay type in all cases: binding
[1] = target: 468 kinases including some pathogenic mutants (Homo sapiens, UniProt Q00536); conditions: PCTK1 (Entrez CDK16), 1000 nM; read-out: Percent Control
[2] = target: 468 kinases including some pathogenic mutants (Homo sapiens, UniProt P16591); conditions: FER (Entrez FER), 100 nM; read-out: Percent Control
[3] = target: 468 kinases including some pathogenic mutants (Homo sapiens, UniProt P27448); conditions: MARK3 (Entrez MARK3), 100 nM; read-out: Percent Control
[4] = target: 468 kinases including some pathogenic mutants (Homo sapiens, UniProt P20794); conditions: MAK (Entrez MAK), 1000 nM; read-out: Percent Control
[5] = target: 468 kinases including some pathogenic mutants (Homo sapiens, UniProt Q8N752); conditions: CSNK1A1L (Entrez CSNK1A1L), 100 nM; read-out: Percent Control
[6] = target: 468 kinases including some pathogenic mutants (Homo sapiens, UniProt Q9H4A3); conditions: WNK1 (Entrez WNK1), 1000 nM; read-out: Percent Control
[7] = target: 468 kinases including some pathogenic mutants (Homo sapiens, UniProt O75914); conditions: PAK3 (Entrez PAK3), 100 nM; read-out: Percent Control
[8] = target: 468 kinases including some pathogenic mutants (Homo sapiens, UniProt Q5VT25); conditions: MRCKA (Entrez CDC42BPA), 100 nM; read-out: Percent Control
[9] = target: 468 kinases including some pathogenic mutants (Homo sapiens, UniProt Q6PHR2); conditions: ULK3 (Entrez ULK3), 100 nM; read-out: Percent Control
[10] = target: 468 kinases including some pathogenic mutants (Homo sapiens, UniProt Q86UE8); conditions: TLK2 (Entrez TLK2), 1000 nM; read-out: Percent Control
[11] = target: 468 kinases including some pathogenic mutants (Homo sapiens, UniProt P23458); conditions: read-out: Percent Control
[12] = target: 468 kinases including some pathogenic mutants (Homo sapiens, UniProt Q96PN8); conditions: TSSK3 (Entrez TSSK3), 1000 nM; read-out: Percent Control
[13] = target: 468 kinases including some pathogenic mutants (Homo sapiens, UniProt Q7KZI7); conditions: MARK2 (Entrez MARK2), 100 nM; read-out: Percent Control
[14] = target: 468 kinases including some pathogenic mutants (Homo sapiens, UniProt P51812); conditions: read-out: Percent Control
[15] = target: 468 kinases including some pathogenic mutants (Homo sapiens, UniProt Q96D53); conditions: ADCK4 (Entrez ADCK4), 100 nM; read-out: Percent Control
[16] = target: 468 kinases including some pathogenic mutants (Homo sapiens, UniProt P00533, L861Q); conditions: read-out: Percent Control
[17] = target: 468 kinases including some pathogenic mutants (Homo sapiens, UniProt O94921); conditions: PFTK1 (Entrez CDK14), 100 nM; read-out: Percent Control
[18] = target: 468 kinases including some pathogenic mutants (Homo sapiens, UniProt Q99640); conditions: PKMYT1 (Entrez PKMYT1), 100 nM; read-out: Percent Control
[19] = target: 468 kinases including some pathogenic mutants (Homo sapiens, UniProt P49840); conditions: GSK3A (Entrez GSK3A), 100 nM; read-out: Percent Control
[20] = target: 468 kinases including some pathogenic mutants (Homo sapiens, UniProt Q15418); conditions: 1000 nM, read-out: Percent Control
[21] = target: 468 kinases including some pathogenic mutants (Homo sapiens, UniProt P49336); conditions: CDK8 (Entrez CDK8), 100 nM; read-out: Percent Control
[22] = target: 468 kinases including some pathogenic mutants (Homo sapiens, UniProt O60331); conditions: PIP5K1C (Entrez PIP5K1C), 1000 nM; read-out: Percent Control
[23] = target: 468 kinases including some pathogenic mutants (Homo sapiens, UniProt Q14680); conditions: MELK (Entrez MELK), 1000 nM; read-out: Percent Control
[24] = target: 468 kinases including some pathogenic mutants (Homo sapiens, UniProt P42336, C420R); conditions: read-out: Percent Control
[25] = target: 468 kinases including some pathogenic mutants (Homo sapiens, UniProt Q9H422); conditions: HIPK3 (Entrez HIPK3), 100 nM; read-out: Percent Control
[26] = target: 468 kinases including some pathogenic mutants (Homo sapiens, UniProt O94806); conditions: PRKD3 (Entrez PRKD3), 100 nM; read-out: Percent Control
[27] = target: 468 kinases including some pathogenic mutants (Homo sapiens, UniProt P35968); conditions: VEGFR2 (Entrez KDR), 100 nM; read-out: Percent Control
[28] = target: 468 kinases including some pathogenic mutants (Homo sapiens, UniProt Q8IW41); conditions: MAPKAPK5 (Entrez MAPKAPK5), 1000 nM; read-out: Percent Control

Sequence of 468 kinases including some pathogenic mutants (Homo sapiens, UniProt P51812) (P51812 whole entry, change not shown): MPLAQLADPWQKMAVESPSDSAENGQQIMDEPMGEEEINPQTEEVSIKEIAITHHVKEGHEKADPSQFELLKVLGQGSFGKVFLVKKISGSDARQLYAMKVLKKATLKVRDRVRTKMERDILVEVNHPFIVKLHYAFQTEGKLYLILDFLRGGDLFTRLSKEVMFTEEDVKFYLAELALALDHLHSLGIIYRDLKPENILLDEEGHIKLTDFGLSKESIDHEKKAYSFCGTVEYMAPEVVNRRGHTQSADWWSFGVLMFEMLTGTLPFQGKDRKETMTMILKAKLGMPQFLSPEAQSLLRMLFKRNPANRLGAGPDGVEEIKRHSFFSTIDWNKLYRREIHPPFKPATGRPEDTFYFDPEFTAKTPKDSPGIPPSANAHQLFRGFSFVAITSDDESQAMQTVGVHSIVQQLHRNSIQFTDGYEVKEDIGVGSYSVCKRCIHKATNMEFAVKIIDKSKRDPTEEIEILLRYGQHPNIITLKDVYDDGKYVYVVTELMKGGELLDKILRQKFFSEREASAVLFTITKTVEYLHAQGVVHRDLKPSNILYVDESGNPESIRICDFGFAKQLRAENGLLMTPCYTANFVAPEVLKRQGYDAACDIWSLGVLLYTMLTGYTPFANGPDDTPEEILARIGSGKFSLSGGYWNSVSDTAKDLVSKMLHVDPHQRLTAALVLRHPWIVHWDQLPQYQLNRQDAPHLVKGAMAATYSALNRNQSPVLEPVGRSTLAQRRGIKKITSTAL
Sequence of 468 kinases including some pathogenic mutants (Homo sapiens, UniProt P23458) (P23458 whole entry, change not shown): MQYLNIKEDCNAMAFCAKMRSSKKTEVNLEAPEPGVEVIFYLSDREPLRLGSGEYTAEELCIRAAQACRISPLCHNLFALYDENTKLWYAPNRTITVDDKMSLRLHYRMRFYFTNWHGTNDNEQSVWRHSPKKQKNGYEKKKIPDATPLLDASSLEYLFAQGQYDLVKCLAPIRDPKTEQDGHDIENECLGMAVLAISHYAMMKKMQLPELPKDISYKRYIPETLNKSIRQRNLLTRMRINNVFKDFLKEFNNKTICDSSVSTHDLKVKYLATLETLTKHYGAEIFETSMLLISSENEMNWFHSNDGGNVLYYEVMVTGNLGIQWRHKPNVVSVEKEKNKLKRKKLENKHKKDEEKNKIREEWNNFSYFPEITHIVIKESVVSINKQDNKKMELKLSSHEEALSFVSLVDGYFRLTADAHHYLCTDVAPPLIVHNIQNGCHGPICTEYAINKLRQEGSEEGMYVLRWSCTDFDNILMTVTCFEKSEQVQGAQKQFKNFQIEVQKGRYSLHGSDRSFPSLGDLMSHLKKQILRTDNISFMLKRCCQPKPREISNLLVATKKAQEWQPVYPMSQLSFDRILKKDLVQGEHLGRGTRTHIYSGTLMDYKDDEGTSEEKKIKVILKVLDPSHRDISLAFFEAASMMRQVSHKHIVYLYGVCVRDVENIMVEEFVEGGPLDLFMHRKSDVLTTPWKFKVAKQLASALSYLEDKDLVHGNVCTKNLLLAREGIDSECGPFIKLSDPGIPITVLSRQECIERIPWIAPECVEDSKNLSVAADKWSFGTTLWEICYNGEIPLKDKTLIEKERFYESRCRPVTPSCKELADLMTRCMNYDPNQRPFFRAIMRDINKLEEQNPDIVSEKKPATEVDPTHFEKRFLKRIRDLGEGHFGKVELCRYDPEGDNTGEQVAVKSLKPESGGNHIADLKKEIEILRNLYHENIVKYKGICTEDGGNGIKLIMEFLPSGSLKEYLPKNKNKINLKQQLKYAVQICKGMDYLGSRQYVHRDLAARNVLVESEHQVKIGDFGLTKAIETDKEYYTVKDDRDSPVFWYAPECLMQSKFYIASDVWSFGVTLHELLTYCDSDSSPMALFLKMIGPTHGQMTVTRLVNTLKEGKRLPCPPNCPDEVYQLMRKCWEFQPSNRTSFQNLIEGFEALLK
Sequence of 468 kinases including some pathogenic mutants (Homo sapiens, UniProt Q15418) (Q15418 whole entry, change not shown): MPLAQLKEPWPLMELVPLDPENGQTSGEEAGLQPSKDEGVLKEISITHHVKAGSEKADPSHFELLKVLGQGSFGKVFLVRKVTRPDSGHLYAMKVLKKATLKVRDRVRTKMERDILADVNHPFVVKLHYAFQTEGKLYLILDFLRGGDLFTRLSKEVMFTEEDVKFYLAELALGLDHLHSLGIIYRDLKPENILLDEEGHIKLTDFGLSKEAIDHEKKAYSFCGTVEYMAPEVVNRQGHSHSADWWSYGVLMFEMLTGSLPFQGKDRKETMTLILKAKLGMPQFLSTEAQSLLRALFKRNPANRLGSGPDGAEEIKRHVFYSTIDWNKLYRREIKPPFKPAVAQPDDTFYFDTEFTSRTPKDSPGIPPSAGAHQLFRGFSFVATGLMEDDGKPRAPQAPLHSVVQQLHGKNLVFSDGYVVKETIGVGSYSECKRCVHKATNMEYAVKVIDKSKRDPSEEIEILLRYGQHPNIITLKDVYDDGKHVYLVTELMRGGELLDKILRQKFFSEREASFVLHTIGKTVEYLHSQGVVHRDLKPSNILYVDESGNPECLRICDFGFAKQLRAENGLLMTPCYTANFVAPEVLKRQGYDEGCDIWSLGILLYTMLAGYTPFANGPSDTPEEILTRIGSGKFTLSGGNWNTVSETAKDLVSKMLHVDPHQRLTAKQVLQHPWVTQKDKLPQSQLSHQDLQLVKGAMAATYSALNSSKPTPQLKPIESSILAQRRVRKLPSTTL
Sequence of 468 kinases including some pathogenic mutants (Homo sapiens, UniProt Q8N752) (Q8N752 whole entry, change not shown): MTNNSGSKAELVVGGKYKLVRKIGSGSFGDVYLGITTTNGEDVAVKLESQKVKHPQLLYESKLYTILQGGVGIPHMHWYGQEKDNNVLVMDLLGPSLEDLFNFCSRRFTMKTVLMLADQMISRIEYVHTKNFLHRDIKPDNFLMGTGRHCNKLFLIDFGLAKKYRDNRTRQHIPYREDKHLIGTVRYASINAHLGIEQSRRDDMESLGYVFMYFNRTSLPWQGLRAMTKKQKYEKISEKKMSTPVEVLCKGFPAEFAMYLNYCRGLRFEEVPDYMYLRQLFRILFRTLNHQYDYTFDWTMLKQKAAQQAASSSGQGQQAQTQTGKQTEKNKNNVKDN
Sequence of 468 kinases including some pathogenic mutants (Homo sapiens, UniProt O75914) (O75914 whole entry, change not shown): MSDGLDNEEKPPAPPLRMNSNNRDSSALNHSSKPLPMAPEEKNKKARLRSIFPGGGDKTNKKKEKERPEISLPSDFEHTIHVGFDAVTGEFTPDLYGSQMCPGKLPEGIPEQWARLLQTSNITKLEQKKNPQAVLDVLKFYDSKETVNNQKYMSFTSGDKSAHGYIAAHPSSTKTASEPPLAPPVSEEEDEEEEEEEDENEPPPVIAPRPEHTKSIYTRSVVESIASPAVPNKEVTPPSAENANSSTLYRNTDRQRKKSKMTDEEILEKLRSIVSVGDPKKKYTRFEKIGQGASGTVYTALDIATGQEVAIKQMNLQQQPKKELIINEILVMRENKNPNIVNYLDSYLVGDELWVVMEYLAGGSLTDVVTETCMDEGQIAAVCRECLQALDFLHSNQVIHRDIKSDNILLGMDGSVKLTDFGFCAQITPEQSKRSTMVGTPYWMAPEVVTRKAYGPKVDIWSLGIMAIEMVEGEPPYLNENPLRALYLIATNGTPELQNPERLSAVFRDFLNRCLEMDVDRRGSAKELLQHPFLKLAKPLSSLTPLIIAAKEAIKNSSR
Sequence of 468 kinases including some pathogenic mutants (Homo sapiens, UniProt O94921) (O94921 whole entry, change not shown): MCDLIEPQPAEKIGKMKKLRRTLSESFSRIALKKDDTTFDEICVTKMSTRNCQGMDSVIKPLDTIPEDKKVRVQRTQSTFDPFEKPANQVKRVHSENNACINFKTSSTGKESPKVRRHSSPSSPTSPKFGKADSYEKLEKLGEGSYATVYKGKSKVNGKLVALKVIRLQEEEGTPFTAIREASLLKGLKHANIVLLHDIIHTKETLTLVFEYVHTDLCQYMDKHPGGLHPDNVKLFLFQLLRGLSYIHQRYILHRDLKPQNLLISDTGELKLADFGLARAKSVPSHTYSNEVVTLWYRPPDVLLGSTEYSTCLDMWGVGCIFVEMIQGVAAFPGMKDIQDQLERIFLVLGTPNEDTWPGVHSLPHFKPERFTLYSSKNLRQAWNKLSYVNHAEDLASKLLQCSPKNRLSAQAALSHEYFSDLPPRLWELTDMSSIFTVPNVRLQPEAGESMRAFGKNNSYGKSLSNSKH
Sequence of 468 kinases including some pathogenic mutants (Homo sapiens, UniProt Q7KZI7) (Q7KZI7 whole entry, change not shown): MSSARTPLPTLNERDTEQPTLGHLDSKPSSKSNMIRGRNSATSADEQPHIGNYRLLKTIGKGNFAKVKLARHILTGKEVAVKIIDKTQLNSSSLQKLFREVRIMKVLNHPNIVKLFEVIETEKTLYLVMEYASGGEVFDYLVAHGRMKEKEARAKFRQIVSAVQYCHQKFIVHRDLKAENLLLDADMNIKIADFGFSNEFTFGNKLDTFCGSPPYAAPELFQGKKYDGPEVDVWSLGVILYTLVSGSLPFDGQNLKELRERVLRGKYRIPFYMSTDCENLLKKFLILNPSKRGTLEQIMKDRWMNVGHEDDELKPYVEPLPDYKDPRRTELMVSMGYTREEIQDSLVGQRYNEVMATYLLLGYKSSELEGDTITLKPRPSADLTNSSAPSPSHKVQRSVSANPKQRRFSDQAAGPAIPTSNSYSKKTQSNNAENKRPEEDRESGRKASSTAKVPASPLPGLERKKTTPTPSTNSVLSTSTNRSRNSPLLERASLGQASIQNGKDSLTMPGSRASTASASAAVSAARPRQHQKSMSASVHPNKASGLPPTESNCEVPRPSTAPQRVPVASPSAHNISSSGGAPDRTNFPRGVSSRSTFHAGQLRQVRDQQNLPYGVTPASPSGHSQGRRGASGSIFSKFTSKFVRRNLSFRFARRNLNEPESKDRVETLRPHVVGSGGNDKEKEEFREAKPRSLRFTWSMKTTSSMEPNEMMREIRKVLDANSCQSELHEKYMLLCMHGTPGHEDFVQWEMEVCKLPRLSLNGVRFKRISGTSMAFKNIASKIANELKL
Sequence of 468 kinases including some pathogenic mutants (Homo sapiens, UniProt Q96PN8) (Q96PN8 whole entry, change not shown): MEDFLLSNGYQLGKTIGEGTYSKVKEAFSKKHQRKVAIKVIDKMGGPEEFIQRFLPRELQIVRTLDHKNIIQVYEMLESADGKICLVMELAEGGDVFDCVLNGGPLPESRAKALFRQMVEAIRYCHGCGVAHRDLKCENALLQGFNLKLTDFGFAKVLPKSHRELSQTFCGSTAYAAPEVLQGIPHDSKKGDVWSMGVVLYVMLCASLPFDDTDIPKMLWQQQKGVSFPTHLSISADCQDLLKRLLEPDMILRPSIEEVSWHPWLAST

Work on `CN1C(=O)[C@@H](N2CCc3c(nn(Cc4ccccc4)c3C(N)=O)C2=O)COc2cc(Cl)ccc21` [Compound 10, (S)-2-benzyl-6-(8-chloro-5-methyl-4-oxo-2,3,4,5-tetrahydrobenzo[b][1,4]oxazepin-3-yl)-7-oxo-4,5,6,7-tetrahydro-2H-pyrazolo[3,4-c]pyridine-3-carboxamide] yielded a remaining activity at 1 µM [1] of 100%, a remaining activity at 0.1 µM [2] of 100% and a remaining activity at 0.1 µM [3] of 100%. The remaining activity at 1 µM [4] was 100%, the remaining activity at 0.1 µM [5] was 86% and the remaining activity at 1 µM [6] was 100%. It also gave a remaining activity at 0.1 µM [7] of 53%, a remaining activity at 0.1 µM [8] of 73% and a remaining activity at 0.1 µM [9] of 100%. The remaining activity at 1 µM [10] was 100%, the remaining activity at 0.1 µM ([11]; JAK1(JH1domain-catalytic) (Entrez JAK1), 100 nM) was 83% and the remaining activity at 0.1 µM [11] was 97%. The remaining activity at 1 µM [12] was 100%, the remaining activity at 0.1 µM [13] was 78% and the remaining activity at 1 µM ([14]; RSK2(Kin.Dom.1-N-terminal) (Entrez RPS6KA3), 1000 nM) was 100%. The remaining activity at 0.1 µM ([14]; RSK2(Kin.Dom.2-C-terminal) (Entrez RPS6KA3), 100 nM) was 74%, the remaining activity at 0.1 µM [15] was 88% and the remaining activity at 0.1 µM [16] was 100%. For the same compound, the remaining activity at 0.1 µM [17] was 95%, the remaining activity at 0.1 µM [18] was 90% and the remaining activity at 0.1 µM [19] was 100%. It also gave a remaining activity at 1 µM ([20]; RSK1(Kin.Dom.1-N-terminal) (Entrez RPS6KA1)) of 100%, a remaining activity at 1 µM ([20]; RSK1(Kin.Dom.2-C-terminal) (Entrez RPS6KA1)) of 100% and a remaining activity at 0.1 µM [21] of 100%. The remaining activity at 1 µM [22] was 100%, the remaining activity at 1 µM [23] was 100% and the remaining activity at 0.1 µM [24] was 88%. It also gave a remaining activity at 0.1 µM [25] of 77%, a remaining activity at 0.1 µM [26] of 76% and a remaining activity at 0.1 µM [27] of 81%. It also gave a remaining activity at 1 µM [28] of 100%.
